Data taken from patent publication US7910579B2, “Benzoxazole derivatives” (Tohoku University, priority 2006, dated 2011).
Like-named read-outs stand apart in the source and are kept apart here.

Experiments:
[1] = target: T1, amyloid β protein in the brain section of an Alzheimer disease patient (Homo sapiens, UniProt P05067); experiment: Staining test on a brain section of an Alzheimer disease patient: amyloid β protein; assay type: binding; conditions: for Binding to (staining of) amyloid β protein in the brain section of an Alzheimer disease patient: 100 μM solution in 50% ethanol, 10 minutes, paraffin brain section; for Specificity to amyloid β: statement in the description of formulae (II) to (VI)
T1 construct: from tissue; host or cells: paraffin-embedded temporal lobe and hippocampus of Alzheimer disease patients
T1 sequence (P05067 672-713 limits assumed): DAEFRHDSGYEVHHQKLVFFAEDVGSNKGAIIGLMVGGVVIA
From the text: (1) Brain specimens at the temporal lobe and the hippocampus of patients to which a definitive diagnosis of Alzheimer disease had been given, and those of normal senile persons were used. The specimens were given by our coworker, Fukushimura Hospital, Longevity Medicine Institute, and we were given their consent of use of the specimens for our study purpose by the bereaved of the patients (Fukushimura Hospital Ethical Review Board Approval No. 20).
(2) The paraffin-embedded brain tissue was cut Into slices having a thickness of 6 μm or 8 μm, and extended and dried on a slide. The paraffin brain section was steeped for paraffin removal in xylene twice for 10 minutes, 100% ethanol twice for 5 minutes, 90% ethanol for 5 minutes and running water for 10 minutes in that order.
(3) For pretreatment prior to the staining treatment with a compound of the invention, the sections were steeped for autofluorescence removal with lipofuscin. First, the paraffin-removed sections were dipped in 0.25% KMnO4 solution for 20 minutes. These were washed with PBS, twice for 2 minutes, then dipped in 0.1% K2S2O5/oxalic acid solution for about 5 seconds, and then further washed with PBS, three times for 2 minutes.
(4) About 150 μl of a 100 μM solution of a compound of the invention dissolved in 50% ethanol was dropwise applied to the section and reacted for 10 minutes. After dipped five times in tap water, the section was entrapped with Fluor Save Reagent (Calbiochem), and analyzed through microscopy with a fluorescence microscope (Nikon, Eclipse 80i). The images were taken with a digital camera (Nikon Dxm 1200F or Photometrics' Cool SNAP ES).
(1) After paraffin removal, the sections were washed in distilled water, twice for 2 minutes. Then, using ImmunoPen, the tissue was marked with a surrounding line; about 150 μl of formic acid was dropwise applied to the section and statically left at room temperature for 5 minutes. The section was washed with tap water for 5 minutes, then dipped in cold PBS-Tween 20 for 2 minutes, and thereafter about 150 μl of 0.05% trypsin solution was dropwise applied to it and reacted at 37° C. for 15 minutes.
(2) In an ice bath, this was washed with cold PBS-Tween 20, twice for 5 minutes, and then 2 drops of blocking serum were applied to it and reacted at 37° C. for 30 minutes. Excess water was removed, and then about 150 μl of a specific antibody to amyloid β protein, 6F/3D (by DAKO, 1/50 dilution) was dropwise applied to it, and reacted at 37° C. for 1 hour.
(3) Further, this was washed with cold PBS-Tween 20, 5 times for 2 minutes, and then 2 drops of an anti-mouse IgG (H+L), goat, biotin-binding solution were applied to it and reacted at 37° C. for 1 hour. Then, this was washed with cold PBS-Tween 20, three times for 2 minutes, and 2 drops of an ABC solution (streptoavidin-biotin-peroxidase composite solution) were applied to it, and left statically as such for 30 minutes. Again this was washed with cold PBS-Tween 20, three times for 2 minutes, and then about 150 μl of a DAB solution (10 mg of DAB was dissolved in 20 ml of 0.05 mol/liter tris-HCl buffer, and just before use, 100 μl of 3% hydrogen peroxide water was added to it) was dropwise applied to it for sufficiently staining it. Then, this was washed with distilled water for 1 minute to stop the reaction, then entrapped and observed through microscopy.

Amyloid β protein 1-40 = target: T2, Amyloid β protein 1-40 (Homo sapiens, UniProt P05067); experiment: Fluorescence Congo Red Method; assay type: binding; conditions: 1 h, compound 10 μM, amyloid β protein 5 μM
T2 construct: Amyloid β protein 1-40 (bought from Peptide Laboratory); purchased Peptide Laboratory
T2 sequence (P05067 672-711): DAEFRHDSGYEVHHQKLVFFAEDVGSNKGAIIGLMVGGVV
Protocol: Next described is a screening method for the compounds of the invention. Some of the compounds of the invention could not be screened according to a Thioflavin T method, since their fluorescence wavelength overlaps with that of Thioflavin T. For such compounds, the following novel screening method was introduced. (1) Amyloid β protein 1-40 (bought from Peptide Laboratory) was dissolved in a phosphate buffer (pH 7.4) and left at 37° C. for 4 days. (2) 50 μl of Congo red dissolved in the buffer was applied to a 96-well microplate (final concentration, 0.1, 0.3, 1 μM). (3) 100 μl of amyloid β protein was added to it (final concentration 5 μM), and left as such for 30 minutes. (4) 100 μl of a test compound dissolved in the buffer was added to it (final concentration, 10 μM, and left as such for 60 minutes. (5) Using a fluorescence microplate reader (Spectra Max 190 by Molecular Device), the sample was analyzed at the optimum exciting wavelength and the test wavelength that had been previously determined. (6) The fluorescence intensity in the presence of the test compound, amyloid β protein and Congo red is represented by A; that in the presence of the test compound and Congo red is by B; that in the presence of the test compound and amyloid β protein is by C; and that in the presence of only the test compound is by D. The β structure recognition of the test compound is computed according to the following formula: β structure recognition (%) of test compound={(A−B)/(C−D)}×100. (7) It may be said that the test compound having a higher β structure recognition percentage may have higher binding specificity to amyloid β protein.

Acute Toxicity Test = assay type: in vivo; conditions: Crj:CD1 male mice, tail vein, observed for 7 days
Protocol: The compounds of the invention were tested for their acute toxicity through intravenous administration thereof to mice. Four Crj:CD1 male mice formed one test group, and some test groups of those mice were used (the mean body weight of the mice of each group was from 31 to 32 g). A test compound was dissolved in a mixture of 1 N HCl, polyethylene glycol-400 and distilled water, or dissolved in DMSO, and then diluted with distilled water. This was administered to each mouse via its tail vein.

[2] = Congo red 0.1 μM, read-out: Binding Percentage of Compound in the presence of 0.1 μM CR
[3] = Congo red 0.3 μM, read-out: Binding Percentage of Compound in the presence of 0.3 μM CR
[4] = Congo red 1 μM, read-out: Binding Percentage of Compound in the presence of 1 μM CR

SMILES | Binding to (staining of) amyloid β protein in the brain section of an Alzheimer disease patient [1] | Specificity to amyloid β [1] | activity at 10 µM (Amyloid β protein 1-40; [2]) [%] | activity at 10 µM (Amyloid β protein 1-40; [3]) [%] | activity at 10 µM (Amyloid β protein 1-40; [4]) [%] | Maximum Permissible Dose (mg/kg, intravenous administration) (Acute Toxicity Test)
CN(C)c1ccc(-c2nnc(-c3sc4cc(Cl)ccc4c3Cl)o2)cc1 [THK-262, [4-[5-(3,6-dichloro-benzo[b]thiophen-2-yl)-[1,3,4]oxadiazol-2-yl]-phenyl]-dimethylamine] | bound to the amyloid β protein | high specificity to amyloid β | – | – | – | –
OCC(CF)Oc1ccc2nc(/C=C/c3cnc(N4CCCOCC4)s3)oc2c1 (centres unmarked) [THK-766, (E)-6-[(1-fluoromethyl-2-hydroxy)ethoxy]-2-[2-[2-homomorpholinothiazol-5-yl)ethenyl]benzoxazole] | white space arrow indicates amyloid β protein | – | 61 | 21.5 | 11.2 | ≧10 mg/kg
CN(C)c1ccc(/C=C/C23NC(=O)CCN2c2ccc(Br)cc2C3(C)C)cc1 (centres unmarked) [THK-558, 8-bromo-10a-[2-(4-dimethyl-amino-phenyl)-vinyl]-10,10-dimethyl 1-3,4,10,10a-tetrahydro-1H-pyrimido[1,2-a]indol-2-one] | bound to the amyloid β protein | high specificity to amyloid β | – | – | – | –
CN(C)c1ccc(/C=C\C=C2C(=O)c3ccccc3C2=O)cc1 [THK-248, 2-[3-(4-dimethylamino-phenyl)-allylidene]-indane-1,3-dione] | bound to the amyloid β protein | high specificity to amyloid β | – | – | – | –
O=C1Nc2ccc(Cl)cc2/C1=C/c1ccc(N2CCOCC2)cc1 [THK-276, 5-chloro-3-(4-morpholin-4-yl-benzylidene)-1,3-dihydroindol-2-one] | bound to the amyloid β protein | high specificity to amyloid β | – | – | – | –
Cc1ccc2c(c1)C(C)(C)C1(/C=C/C=C/c3ccc(N(C)C)cc3)NC(=O)CCN21 (centres unmarked) [THK-565] | bound to the amyloid β protein | high specificity to amyloid β | – | – | – | –
OCC(CF)Oc1ccc2nc(/C=C/c3cnc(N4CCCCCC4)s3)oc2c1 (centres unmarked) [THK-765, (E)-6-[(1-fluoromethyl-2-hydroxy)ethoxy]-2-[2-[2-(homopiperidin-1-yl)thiazol-5-yl]ethenyl]benzoxazole] | – | – | 71.2 | 41.3 | 23 | ≧10 mg/kg
CN(C)c1ccc(/C=C/C23NC(=O)CN2c2ccc(Br)cc2C3(C)C)cc1 (centres unmarked) [THK-556, 7-bromo-9a-[2-(4-dimethyl-amino-phenyl)-vinyl]-9,9-dimethyl-9,9a-dihydro-1H-imidazo[1,2-a]indol-2-one] | bound to the amyloid β protein | high specificity to amyloid β | – | – | – | –
OCC(CF)Oc1ccc2nc(/C=C/c3cnc(N4CCCOC4)s3)oc2c1 (centres unmarked) [THK-757, (E)-6-[(1-fluoromethyl-2-hydroxy)ethoxy]-2-[2-[2-([1,3]oxadinan-3-yl)-thiazol-5-yl]ethenyl] benzoxazole] | – | – | 52.4 | 24.8 | 10.3 | ≧10 mg/kg
c1csc(-c2nnc(-c3ccc(N4CCOCC4)cc3)o2)c1 [THK-383, 4-[4-(5-thiophen-2-yl-[1,3,4]oxadiazol-2-yl)-phenyl]-morpholine] | bound to the amyloid β protein | high specificity to amyloid β | – | – | – | –
O=C1Nc2ccc(Cl)cc2/C1=C/c1ccc(N2CCOCC2)s1 [THK-308, 5-chloro-3-(5-morpholin-4-yl-thiophen-2-ylmethylene)-1,3-dihydroindol-2-one] | bound to the amyloid β protein | high specificity to amyloid β | – | – | – | –
